The values that follow come from article PMC5365662, “A Short Double-Stapled Peptide Inhibits Respiratory Syncytial Virus Entry and Spreading” (Antimicrobial Agents and Chemotherapy, 2017).

Bridge positions count the residues as written; N and C are the ends. Square brackets hold non-standard residues; d marks the D form. Peptide text beside a SMILES is read from it. S5 = C=CCCC[C@](C)(N)C(=O)O

For one data set, the system named is RSV. The following applies: cited from earlier work. An excerpt: The RSV fusion glycoprotein (F) is the focus of active research in the field of vaccines, neutralizing antibodies, and small molecules. […] RSV F is a type I fusion protein that is activated into a metastable prefusion state upon cleavage by host proteases. The prefusion state contains a hydrophobic fusion peptide, ...

The nature of data set [1]: Proteolytic stability assay, chymotrypsin. The class given is in vitro ADME. The following applies: chymotrypsin (isolated protease); 10 μl peptide 0.29 mM in 990 μl 100 mM Tris-HCl pH 8.0, 10 mM CaCl2; 10 μl chymotrypsin 50 μg/ml; 25°C; LC-MS of intact peptide, exponential decay fit; 3 experiments. Here is the method:
(§1) This is an important parameter to assess for the development of peptide therapeutics. Peptides 4bb, 4ca, and 4a, and the unstapled analog peptide 4, as well as both SAH-RSVFBD isomers, were treated with chymotrypsin or trypsin, and the samples were analyzed by LC/MS to quantify the reaction products over time. […] In comparison, both SAH-RSVFBD isomers were more susceptible to proteolytic degradation, with half-lives of approximately 7 h and 5 min against chymotrypsin and trypsin, respectively.
(§2) In vitro proteolytic degradation was measured via LC-MS using an Agilent Infinity 1280 UHPLC system coupled to an Agilent quadrupole time of flight (QTOF) 6530 instrument with an Agilent Jet Stream electrospray ionization (AJS ESI) source (all from Agilent Technologies, Waldbronn, Germany). Five microliters of digested sample was injected onto a C18 column (Zorbax Eclipse Plus RRHD, 1.8 μm, 2.1 by 100 mm; Agilent Technologies, Waldbronn, Germany) equilibrated with solvent A (5% acetonitrile, 0.2% formic acid) and eluted with a flow rate of 0.4 ml/min over a 5 to 95% gradient of solvent B (95% acetonitrile, 0.2% formic acid) in 5 min, followed by 1.5 min at 95% and 0.5 min posttime. The AJS ESI source was operated with a capillary voltage of 4,000 V and a nozzle voltage of 600 V with a drying gas temperature of 325°C and flow rate of 10 liters/min, nebulizing gas pressure of 20 lb/in^2, and a sheath gas temperature of 300°C and flow rate of 11 liters/min. Mass spectra were acquired in the positive-ion mode from 100 to 3,200 m/z at a rate of 1 scan per second in extended dynamic range (2 GHz) mode. The fragmentor, skimmer, and octopole RF voltages were set to 200, 60, and 750 V, respectively. Data were acquired and analyzed with the Agilent MassHunter Workstation (version B.05).
(§3) Peptide digestion was performed as follows: 10 μl of peptide at 0.29 mM in 50:50 acetonitrile-water was dissolved in 990 μl 100 mM Tris-HCl (pH 8.0) with 10 mM CaCl2. Following measurement of the undigested (t0) sample, 10 μl of chymotrypsin at 50 μg/ml in 100 mM Tris-HCl (pH 8.0) with 10 mM CaCl2 was added, and the sample was vortexed and placed immediately in the autosampler, set to 25°C. The level of intact peptide was quantified by serial injection over time. Integration of the intact peptide compound chromatogram was performed using the Agilent Molecular Feature Extraction (MFE) algorithm. The value of the fit at t = 0 min was used to calculate the percentage of the intact peptide at each point as follows: Percent intact (t) = [Vol (t)/Volt0] × 100, where Vol is the total volume calculated using Find Compounds by Molecular Feature and Volt0 is the value of the fit at time t = 0. A plot of the intact peptide MFE peak area over time gave an exponential decay curve, from which the half-life was determined using MatLab […].

Data set [2] can be described thus: Proteolytic stability assay, trypsin. It counts as in vitro ADME. The following applies: trypsin (isolated protease); 100 mM Tris-HCl pH 8.0, 10 mM CaCl2, 25°C; LC-MS of intact peptide, exponential decay fit; 3 experiments. How it is done: as §1, §2
as §3, with “Integration of the intact peptide compound chromatogram was performed using the Agilent Molecular Feature Extraction (MFE) algorithm.” left out

Data set [3] relates to rHRSV-mCherry in HEp-2 cells. Nature of the data set: rHRSV-mCherry inhibition assay. The class given is cell-based, human respiratory syncytial virus. The following applies: HEp-2 cells. The gist of the method: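 HEp-2 cells infected at MOI 0.2 with rHRSV-mCherry preincubated 15–20 min with serially diluted peptide, peptide kept in 2% FBS medium for 48 h at 37°C. Replication read as mCherry fluorescence (ex 580/em 620 nm), normalized to untreated infected cells; duplicates, curves fitted.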

The test system of a further data set is chymotrypsin. Nature of the data set: Proteolytic stability assay, chymotrypsin. It counts as in vitro ADME. The following applies: treated with chymotrypsin or trypsin, LC/MS. Here is the method: as §1, §2, §3
A short description of data set [4]: Far-UV circular dichroism, α-helical content. The class given is physicochemical. The following applies: CD, 10 mM phosphate buffer pH 7.5, 50 μM peptide, 25°C. Here is the method: The circular dichroism spectra were acquired on a Chirascan spectropolarimeter. The samples were prepared in 10 mM phosphate buffer, pH 7.5, at a peptide concentration of 50 μM. Data were recorded at 25°C by step scan from 180 nm to 260 nm in a 0.5-mm path length quartz cell using 1-nm wavelength increments and a response time of 1 s. The data were converted to per residue molar ellipticity units [θ] (degree per square centimeter per decimole per residue) and smoothed using the Igor Pro software. The percentage of helicity was calculated as described previously ([35]).
Background: Circular dichroism is the unequal absorption of left and right circularly polarised light.

For data set [5], the system named is recombinant GFP-expressing RSV (strain A2) in A549 cells. It counts as cell-based, human respiratory syncytial virus. The following applies: cellular RSV-eGFP assay, data not shown. Here is the method: A549 cells were infected with a recombinant green fluorescent protein (GFP)-expressing RSV (strain A2) ([23]), and the inhibitory activity of the peptide was quantified by flow cytometry.
Each peptide was diluted 3 times by 2-fold serial dilutions. eGFP RSV virus at an MOI of 0.5 was used for the infection, and GFP-positive cells were counted by FACS analysis 24 h p.i. The GFP data were normalized to the fluorescence values observed with virus only and plotted as percent inhibition.
Serial 4-fold dilutions of inhibitors were mixed with eGFP-encoding RSV virus ([23]) with a volume of virus required to achieve approximately 50% of infection in medium containing 2% fetal calf serum. The resulting mixture was added to 24-well plates containing A549 cells. Cells were incubated for 2 h at 37°C, the medium was replaced, and cells were incubated for an additional 24 h. Cells were treated with 300 μl of trypsin for 10 min at 37°C, and the detached cells were diluted in 1 ml of culture medium. Following centrifugation at 1,700 rpm, the pellet was resuspended in 300 μl of PBS–1% fetal bovine serum (FBS) (vol/vol) and GFP-positive cells were counted by fluorescence-activated cell sorter (FACS) analysis. The GFP data were normalized to the fluorescence value observed with virus only. The resulting inhibition curves were fitted in Igor Pro as described above.

For data set [6] the following is noted: all solvents tested.
The mark [7] stands for this setting: RSV-Cherry MOI 0.2, peptide and virus removed after infection and fresh peptide added, mCherry fluorescence 48 h p.i., at least twice in duplicate.

The term EC50 denotes the concentration giving half of the maximal effect. On to `Cc1cn2nc([C@@H]3CCCCN3C(=O)c3cc(Cl)ccc3NS(C)(=O)=O)cc2nc1N1CC[C@H](N)C1` [GS-5806], for which, in the data set on RSV, the EC50 is 0.4 nM.

What is called half-life is the time needed for the level to fall by half in the phase considered. The compound `CC[C@H](C)[C@@H]1NC(=O)[C@H](CO)NC(=O)[C@](C)(NC(=O)[C@H](CC(=O)O)NC(=O)[C@H](Cc2ccccc2)NC(C)=O)CCCCCCC=CCCC[C@@](C)(C(=O)N[C@@H](CCCCN)C(=O)N[C@H](C(=O)N[C@@H](CC(N)=O)C(=O)N[C@@H](CCC(N)=O)C(=O)N[C@@H](CO)C(=O)N[C@@H](CC(C)C)C(=O)N[C@@H](C)C(=O)N[C@@H](Cc2ccccc2)C(=O)N[C@H](C(=O)N[C@]2(C)CCCCCCC=CCCC[C@@](C)(C(=O)N[C@@H](CC(N)=O)C(=O)N[C@H](C(=O)N[C@@H](CC(N)=O)C(=O)N[C@@H](C)C(=O)NCC(=O)N[C@@H](CCCCN)C(=O)N[C@@H](CO)C(=O)N[C@H](C(N)=O)[C@@H](C)O)C(C)C)NC(=O)[C@H](CC(C)C)NC(=O)[C@H](CC(C)C)NC(=O)[C@H](CCC(=O)O)NC(=O)[C@H](CC(=O)O)NC(=O)[C@H](CO)NC(=O)[C@H](CCCCN)NC2=O)[C@@H](C)CC)[C@@H](C)CC)NC(=O)[C@H](CC(N)=O)NC(=O)[C@H](C(C)C)NC(=O)[C@H](CCC(N)=O)NC(=O)[C@H](CO)NC1=O` [RSV-SAHBD (E), reference compound] showed a half-life at 2.9 µM in data set [1] of 6.5 h. This compound also showed a half-life in data set [2] of 1.2 min.

In the case of `CC[C@H](C)[C@H](NC(=O)[C@H](Cc1ccccc1)NC(=O)[C@H](C)NC(=O)[C@H](CC(C)C)NC(=O)[C@H](CO)NC(=O)[C@H](CCC(N)=O)NC(=O)[C@H](CC(N)=O)NC(=O)[C@@H](NC(=O)[C@H](CCCCN)NC(=O)[C@H](CCC(=O)O)NC(C)=O)[C@@H](C)CC)C(=O)N[C@@H](CCCNC(=N)N)C(=O)N[C@@H](CCCCN)C(=O)N[C@@H](CO)C(=O)N[C@@H](CC(=O)O)C(=O)N[C@@H](CCC(=O)O)C(=O)N[C@@H](CC(C)C)C(=O)N[C@@H](CC(C)C)C(=O)N[C@@H](Cc1c[nH]cn1)C(=O)N[C@@H](CC(N)=O)C(=O)N[C@H](C(N)=O)C(C)C` [Peptide 4] (Ac-EKINQSLAFIRKSDELLHNV-NH2), in data set [3] (setting [7]), the EC50 was above 50000 nM. This compound had a half-life at 2.9 µM in data set [1] of 0.08 h. For the same compound, the “time to full degradation” value with chymotrypsin was at most 10 min. In data set [2], this compound showed a half-life of 4.8 min.

Turning to `CC[C@H](C)[C@H](NC(=O)[C@H](CCCCN)NC(=O)[C@H](CCC(=O)O)NC(C)=O)C(=O)N[C@@]1(C)CCCC=CCCC[C@@](C)(C(=O)N[C@@H](Cc2ccccc2)C(=O)N[C@H](C(=O)N[C@@]2(C)CCCC=CCCC[C@@](C)(C(=O)N[C@@H](CC(C)C)C(=O)N[C@@H](CC(C)C)C(=O)N[C@@H](Cc3c[nH]cn3)C(=O)N[C@@H](CC(N)=O)C(=O)N[C@H](C(N)=O)C(C)C)NC(=O)[C@H](CC(=O)O)NC(=O)[C@H](CO)NC(=O)[C@H](CCCCN)NC2=O)[C@@H](C)CC)NC(=O)[C@H](CC(C)C)NC(=O)[C@H](CO)NC(=O)[C@H](CCC(N)=O)NC1=O` [Peptide 4bb] (Ac-EKI[S5]QSL[S5]FI[S5]KSD[S5]LLHNV-NH2; staple 4-8, 11-15), the “% Helicity” value in data set [4] (Table 2) was found to be 48.1%; in data set [4] (Table 3 (Ala scan)), 53%. In addition, the EC50 in data set [3] (setting [7]) was determined as 740 ± 270 nM; in data set [3] (Table 3 (Ala scan), rHRSV-mCherry MOI 0.2, 2-fold serial dilutions (11 dilutions), duplicate, ± SD of fit), 670 ± 70 nM. In data set [1], this compound had a half-life at 2.9 µM of 50.1 h. The compound also had a half-life in data set [2] of 18 min.

Consider `CC[C@H](C)[C@H](NC(=O)[C@H](CCCCN)NC(=O)[C@H](CCC(=O)O)NC(C)=O)C(=O)N[C@@H](CC(N)=O)C(=O)N[C@@H](CCC(N)=O)C(=O)N[C@@H](CO)C(=O)N[C@@H](CC(C)C)C(=O)N[C@@]1(C)CCCC=CCCC[C@@](C)(C(=O)N[C@@H](CO)C(=O)N[C@@H](CC(=O)O)C(=O)N[C@@]2(C)CCCC=CCCC[C@@](C)(C(=O)N[C@H](C(N)=O)C(C)C)NC(=O)[C@H](Cc3c[nH]cn3)NC(=O)[C@H](CC(C)C)NC(=O)[C@H](CC(C)C)NC2=O)NC(=O)[C@H](CCCNC(=N)N)NC(=O)[C@H]([C@@H](C)CC)NC(=O)[C@H](Cc2ccccc2)NC1=O` [Peptide 4a] (Ac-EKINQSL[S5]FIR[S5]SD[S5]LLH[S5]V-NH2; staple 8-12, 15-19), for which the “% Helicity” value was 23.5% in data set [4] (Table 2) and 64% in data set [4] (Table 3 (Ala scan)). The “potency relative to hit peptide 3ac” value in data set [5] is “twice more potent”. Also, the half-life at 2.9 µM in data set [1] is 74.7 h. This compound also showed a half-life in data set [2] of 78 min.

As to `CC[C@H](C)[C@H](NC(=O)[C@H](Cc1ccccc1)NC(=O)[C@H](C)NC(=O)[C@H](CC(C)C)NC(=O)[C@H](CO)NC(=O)[C@H](CCC(N)=O)NC(=O)[C@H](CC(N)=O)NC(=O)[C@@H](NC(=O)[C@H](CCCCN)NC(=O)[C@H](CCC(=O)O)NC(=O)[C@H](CC(N)=O)NC(=O)[C@@H](NC(=O)[C@H](CCC(N)=O)NC(=O)[C@H](CO)NC(=O)[C@@H](NC(=O)[C@H](CCC(=O)O)NC(C)=O)[C@@H](C)CC)C(C)C)[C@@H](C)CC)C(=O)N[C@@H](CCCNC(=N)N)C(N)=O` [Peptide 2] (Ac-EISQVNEKINQSLAFIR-NH2), in data set [6], the solubility result is given as “insoluble in all solvents tested”.
